Results taken from patent publication US11912701B2, “Protein kinase inhibitors for promoting liver regeneration or reducing or preventing hepatocyte death” (HEPAREGENIX GMBH, priority 2018, dated 2024).

Legend:
BRaf [1] = target: T1, BRaf (Homo sapiens, UniProt P15056); test: KINOMEscan competition binding assay, BRaf; settings: ratio PoC (off-target)/PoC (MKK4)
T1 construct: purchased ProQinase GmbH, Freiburg, Germany (33PanQinase Assay Service)
Experimental: (§1) The assay was performed by combining three components: DNA-tagged kinase; immobilized ligand; and a test compound. The ability of the test compound to compete with the immobilized ligand was measured via quantitative PCR of the DNA tag. The technology is described in detail in Fabian, M. A. et al. A small molecule-kinase interaction map for clinical kinase inhibitors. Nat. […] Nat.
(§2) For investigation of the affinity to MKK4, BRaf, MKK7 and JNK1, the kinases were produced in HEK-293 cells and subsequently tagged with DNA for qPCR detection. […] The liganded beads were blocked with excess biotin and washed with blocking buffer (SEABLOCK™ (Pierce), 1% BSA, 0.05% TWEEN®20, 1 mM DTT) to remove unbound ligand and to reduce nonspecific binding. […] All reactions were performed in polystyrene 96-well plates in a final volume of 0.135 mL. […] The kinase concentration in the eluates was measured by qPCR.
(§3) The test compounds were provided as 10 mM stock solutions. The test solutions at indicated final concentrations were prepared at DiscoverX.
(§4) Potency of representative examples against the protein kinases MKK4, BRaf, MKK7 and JNK1 expressed as residual percent of control binding (PoC), was determined at a concentration of 100 nM. The determined potencies are categorized as follows:
(§5) The binding selectivity of representative examples against the protein kinases BRaf, MKK7 and JNK1, altogether denominated as “off-targets” is determined by the ratios of PoC (off-target)/PoC (MKK4).

MKK7 [2] = target: T2, MKK7 (Homo sapiens, UniProt O14733); test: KINOMEscan competition binding assay, MKK7; set-up: M1/R419; host or cells: HEK-293; settings: ratio PoC (off-target)/PoC (MKK4)
T2 sequence (O14733 1-419): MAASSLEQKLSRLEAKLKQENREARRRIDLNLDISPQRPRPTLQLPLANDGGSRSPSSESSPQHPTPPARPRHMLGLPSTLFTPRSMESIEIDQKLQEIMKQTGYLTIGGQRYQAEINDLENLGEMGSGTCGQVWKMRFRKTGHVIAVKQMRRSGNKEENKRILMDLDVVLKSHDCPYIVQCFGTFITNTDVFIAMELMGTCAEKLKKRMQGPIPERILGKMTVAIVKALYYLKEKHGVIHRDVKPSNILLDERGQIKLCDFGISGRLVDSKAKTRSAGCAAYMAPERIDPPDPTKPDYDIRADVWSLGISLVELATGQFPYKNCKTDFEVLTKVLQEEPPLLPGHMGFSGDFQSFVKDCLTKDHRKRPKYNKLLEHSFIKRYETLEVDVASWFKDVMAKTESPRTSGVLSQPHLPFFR
Experimental: as §1, §2, §3, §4, §5

MKK4 [3] = target: T3, MKK4 (Homo sapiens, UniProt P45985); test: KINOMEscan competition binding assay, MKK4; settings: residual percent of control binding (PoC) at 100 nM
T3 construct: S84/D399; host or cells: HEK-293
T3 sequence (P45985 84-399): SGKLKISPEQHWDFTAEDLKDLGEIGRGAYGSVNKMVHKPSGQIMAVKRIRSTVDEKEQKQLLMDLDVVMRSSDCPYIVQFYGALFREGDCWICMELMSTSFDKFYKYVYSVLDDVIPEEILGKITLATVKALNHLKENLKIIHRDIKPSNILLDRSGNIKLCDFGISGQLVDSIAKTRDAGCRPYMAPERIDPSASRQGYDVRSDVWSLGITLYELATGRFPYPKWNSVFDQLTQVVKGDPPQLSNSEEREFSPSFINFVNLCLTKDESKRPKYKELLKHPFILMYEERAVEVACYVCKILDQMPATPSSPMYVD
Experimental: as §1, §2, §3
Potency of representative examples against the protein kinases MKK4, BRaf, MKK7 and JNK1 expressed as residual percent of control binding (PoC), was determined at a concentration of 100 nM. The determined potencies are categorized as follows: […]

JNK1 [4] = target: T4, JNK1 (Homo sapiens, UniProt P45983); test: KINOMEscan competition binding assay, JNK1; set-up: M1/Q384; host or cells: HEK-293; settings: ratio PoC (off-target)/PoC (MKK4)
Experimental: as §1, §2, §3, §4, §5
Target sequence in this assay (P45983 1-384 isoform P45983-2): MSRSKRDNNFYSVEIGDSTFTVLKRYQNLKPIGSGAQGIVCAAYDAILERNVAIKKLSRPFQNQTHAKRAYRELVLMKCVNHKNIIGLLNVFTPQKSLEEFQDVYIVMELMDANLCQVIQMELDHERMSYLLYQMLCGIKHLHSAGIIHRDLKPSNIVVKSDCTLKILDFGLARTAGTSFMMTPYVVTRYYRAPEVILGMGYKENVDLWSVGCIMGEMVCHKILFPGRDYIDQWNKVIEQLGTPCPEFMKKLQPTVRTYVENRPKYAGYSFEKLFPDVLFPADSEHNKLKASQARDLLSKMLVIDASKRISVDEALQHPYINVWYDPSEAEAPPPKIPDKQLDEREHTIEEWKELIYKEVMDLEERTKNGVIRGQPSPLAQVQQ

MKK4 [5] = target: T5, MKK4 (Homo sapiens, UniProt P45985); test: 33PanQinase enzyme assay, MKK4; assay type: biochemical; settings: assay 'IC50'; for IC50: read-out: Potency MKK4 (IC50)
T5 construct: purchased ProQinase GmbH, Freiburg, Germany (33PanQinase Assay Service)
T5 sequence (P45985 1-399): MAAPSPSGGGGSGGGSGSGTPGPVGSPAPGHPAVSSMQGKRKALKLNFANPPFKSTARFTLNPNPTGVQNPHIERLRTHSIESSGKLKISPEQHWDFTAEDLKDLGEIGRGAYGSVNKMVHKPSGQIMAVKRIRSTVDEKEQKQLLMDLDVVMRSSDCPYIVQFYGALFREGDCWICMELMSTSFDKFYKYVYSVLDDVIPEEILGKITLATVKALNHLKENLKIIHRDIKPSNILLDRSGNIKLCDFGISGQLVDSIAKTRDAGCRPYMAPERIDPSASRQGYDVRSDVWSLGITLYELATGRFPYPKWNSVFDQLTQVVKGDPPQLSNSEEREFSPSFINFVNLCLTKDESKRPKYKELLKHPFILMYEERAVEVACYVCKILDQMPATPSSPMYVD
Summary of the method: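 Inhibition measured as 33Pi transfer to substrate after a 60-min, 30 °C reaction, acid-stopped and scintillation-counted.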

JNK1 [6] = target: T4, JNK1; test: 33PanQinase enzyme assay, JNK1; assay type: biochemical; set-up: purchased ProQinase GmbH, Freiburg, Germany (33PanQinase Assay Service); settings: ratio IC50(JNK1)/IC50(MKK4)
Summary of the method: (§6)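 Off-target selectivity is the ratio IC50(off-target)/IC50(MKK4), with IC50 values from least-squares fitting and single-point data as % residual activity. Reactions of enzyme/substrate mix, ATP and compound ran 60 min at 30° C before H3PO4 stop; ^33P incorporation read on a scintillation counter.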
Target sequence in this assay (P45983 whole entry): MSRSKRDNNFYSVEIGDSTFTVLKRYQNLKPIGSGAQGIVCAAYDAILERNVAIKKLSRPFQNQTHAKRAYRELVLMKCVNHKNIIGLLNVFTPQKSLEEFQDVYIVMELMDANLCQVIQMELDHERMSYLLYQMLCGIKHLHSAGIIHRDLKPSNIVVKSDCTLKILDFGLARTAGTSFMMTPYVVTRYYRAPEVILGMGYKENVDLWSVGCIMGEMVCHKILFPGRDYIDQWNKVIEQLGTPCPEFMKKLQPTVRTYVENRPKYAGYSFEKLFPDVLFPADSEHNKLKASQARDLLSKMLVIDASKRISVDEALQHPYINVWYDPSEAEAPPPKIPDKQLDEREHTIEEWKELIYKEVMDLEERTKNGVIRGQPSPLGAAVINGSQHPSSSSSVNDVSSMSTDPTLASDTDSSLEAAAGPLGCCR

BRaf [7] = target: T1, BRaf; test: 33PanQinase enzyme assay, BRaf; assay type: biochemical; settings: ratio IC50(BRaf)/IC50(MKK4)
Summary of the method: as §6

MKK7 [8] = target: T2, MKK7; test: 33PanQinase enzyme assay, MKK7; assay type: biochemical; set-up: purchased ProQinase GmbH, Freiburg, Germany (33PanQinase Assay Service); settings: ratio IC50(MKK7)/IC50(MKK4)
Summary of the method: as §6

T1 sequence (P15056 whole entry, species assumed): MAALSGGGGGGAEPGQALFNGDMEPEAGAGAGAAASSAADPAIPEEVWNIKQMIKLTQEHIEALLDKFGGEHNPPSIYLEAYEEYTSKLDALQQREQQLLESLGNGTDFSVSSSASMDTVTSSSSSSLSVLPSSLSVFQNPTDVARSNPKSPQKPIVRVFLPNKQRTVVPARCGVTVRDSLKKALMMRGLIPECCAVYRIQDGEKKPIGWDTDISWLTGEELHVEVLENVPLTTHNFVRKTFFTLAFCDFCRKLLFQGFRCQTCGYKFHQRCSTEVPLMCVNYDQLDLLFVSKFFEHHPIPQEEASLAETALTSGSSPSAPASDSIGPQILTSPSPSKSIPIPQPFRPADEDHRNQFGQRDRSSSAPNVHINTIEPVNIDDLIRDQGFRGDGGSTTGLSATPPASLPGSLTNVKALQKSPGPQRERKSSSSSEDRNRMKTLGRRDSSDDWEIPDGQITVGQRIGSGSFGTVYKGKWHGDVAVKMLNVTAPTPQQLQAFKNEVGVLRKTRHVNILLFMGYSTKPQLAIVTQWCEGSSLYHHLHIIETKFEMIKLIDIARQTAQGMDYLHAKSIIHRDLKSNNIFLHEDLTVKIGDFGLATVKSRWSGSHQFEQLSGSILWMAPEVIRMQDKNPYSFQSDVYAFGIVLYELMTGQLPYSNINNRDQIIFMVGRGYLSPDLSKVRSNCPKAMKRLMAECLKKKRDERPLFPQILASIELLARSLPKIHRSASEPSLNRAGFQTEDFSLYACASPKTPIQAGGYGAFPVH

Compound	selectivity based on % Ctrl @100 nM vs. Braf (BRaf [1])	selectivity based on % Ctrl @100 nM vs. MKK7 (MKK7 [2])	MKK4 [% Ctrl @ 100 nM (MKK4 [3])	selectivity based on % Ctrl @100 nM vs. JNK1 (JNK1 [4])	IC50 (MKK4 [5]) [µM]	Selectivity JNK1, IC50(off-target)/IC50(MKK4) (JNK1 [6])	Selectivity Braf, IC50(off-target)/IC50(MKK4) (BRaf [7])	Selectivity IVIKK7, IC50(off-target)/IC50(MKK4) (MKK7 [8])	Potency MKK4 (IC50) (MKK4 [5])
CCCS(=O)(=O)Nc1cc(Br)cc(C(=O)c2c[nH]c3ncc(-c4ccc(Cl)cc4)cc23)c1 [Example 13, N-(3-bromo-5-(5-(4-chlorophenyl)-1H-pyrrolo[2,3-b]pyridine-3-carbonyl)-phenyl)propane-1-sulfonamide]	◯ (3 ≥ Ratio)	◯ (3 ≥ Ratio)	◯ (30 ≤ PoC)	◯ (3 ≥ Ratio)					
CCCNS(=O)(=O)c1cccc(C(=O)c2c[nH]c3ncc(Br)cc23)c1 [Example 14, 3-(5-bromo-1H-pyrrolo[2,3-b]pyridine-3-carbonyl)-N-propyl benzene sulfonamide]	◯ (3 ≥ Ratio)	◯ (3 ≥ Ratio)	◯ (30 ≤ PoC)	◯ (3 ≥ Ratio)					
CCCS(=O)(=O)Nc1cc(Cl)cc(C(=O)c2c[nH]c3ncc(-c4ccc(Cl)cc4)cc23)c1 [Example 16, N-(3-chloro-5-(5-(4-chlorophenyl)-1H-pyrrolo[2,3-b]pyridine-3-carbonyl)phenyl)propane-1-sulfonamide]	◯ (3 ≥ Ratio)	◯ (3 ≥ Ratio)	◯ (30 ≤ PoC)	◯ (3 ≥ Ratio)					
C#Cc1cnc2[nH]cc(C(=O)c3c(F)ccc(NS(=O)(=O)CCC)c3F)c2c1 [Example 18, N-(3-(5-ethynyl-1H-pyrrolo[2,3-b]pyridine-3-carbonyl)-2,4-difluorophenyl) propane-1-sulfonamide]	◯ (3 ≥ Ratio)	+ (10 ≥ ratio > 3)	+ (3 ≤ PoC < 30)	+ (10 ≥ ratio > 3)					
CCCCS(=O)(=O)Nc1ccc(F)c(C(=O)c2c[nH]c3ncc(-c4ccc(F)cc4C)cc23)c1F [Example 19, N-(2,4-difluoro-3-(5-(4-fluoro-2-methylphenyl)-1H-pyrrolo[2,3-b]pyridine-3-carbonyl)phenyl)butane-1-sulfonamide]	++ (100 ≥ ratio > 10)	++ (100 ≥ ratio > 10)	+ (3 ≤ PoC < 30)	++ (100 ≥ ratio > 10)					
O=C(c1cccc(NS(=O)(=O)Cc2ccccc2)c1F)c1c[nH]c2ncc(-c3cc4c(cc3Cl)OCCO4)cc12 [Example 127, N-(3-(5-(7-chloro-2,3-dihydrobenzo[b][1,4]dioxin-6-yl)-1H-pyrrolo[2,3-b]pyridine-3-carbonyl)-2-fluorophenyl)-1-phenylmethanesulfonamide]			++ (1 ≤ PoC < 3)		0.1 to 1				
CCCCS(=O)(=O)Nc1c(F)ccc(C(=O)c2c[nH]c3ncc(-c4ccc(F)cc4C)cc23)c1F [Example 227, N-(2,6-difluoro-3-(5-(4-fluoro-2-methylphenyl)-1H-pyrrolo[2,3-b]pyridine-3-carbonyl)phenyl)butane-1-sulfonamide]					< 0.1	+++ (IC50(off-target)/IC50(MKK4) > 100)	+++ (IC50(off-target)/IC50(MKK4) > 100)	+++ (IC50(off-target)/IC50(MKK4) > 100)	
CCCS(=O)(=O)Nc1c(F)ccc(C(=O)c2c[nH]c3ncc(-c4ccncc4C)cc23)c1F [Example 235, N-(2,6-difluoro-3-(5-(3-methylpyridin-4-yl)-1H-pyrrolo[2,3-b]pyridine-3-carbonyl)phenyl)propane-1-sulfonamide]					< 0.1	+++ (IC50(off-target)/IC50(MKK4) > 100)	+++ (IC50(off-target)/IC50(MKK4) > 100)	+++ (IC50(off-target)/IC50(MKK4) > 100)	
CCCS(=O)(=O)Nc1c(F)ccc(C(=O)c2c[nH]c3ncc(-c4cnc(OC)nc4OC)cc23)c1F [Example 236, N-(3-(5-(2,4-dimethoxypyrimidin-5-yl)-1H-pyrrolo[2,3-b]pyridine-3-carbonyl)-2,6-difluorophenyl)propane-1-sulfonamide]					< 0.1	+++ (IC50(off-target)/IC50(MKK4) > 100)	+++ (IC50(off-target)/IC50(MKK4) > 100)	+++ (IC50(off-target)/IC50(MKK4) > 100)	
CCCS(=O)(=O)Nc1c(F)ccc(C(=O)c2c[nH]c3ncc(-c4cnc(Cl)nc4)cc23)c1F [Example 237, N-(3-(5-(2-chloropyrimidin-5-yl)-1H-pyrrolo[2,3-b]pyridine-3-carbonyl)-2,6-difluorophenyl)propane-1-sulfonamide]						+++ (IC50(off-target)/IC50(MKK4) > 100)	+++ (IC50(off-target)/IC50(MKK4) > 100)	+++ (IC50(off-target)/IC50(MKK4) > 100)	+++·
CCCS(=O)(=O)Nc1c(F)ccc(C(=O)c2c[nH]c3ncc(C4CCC4)cc23)c1F [Example 239, N-(3-(5-cyclobutyl-1H-pyrrolo[2,3-b]pyridine-3-carbonyl)-2,6-difluorophenyl)propane-1-sulfonamide]					< 0.1	++ (100 ≥ IC50(off-target)/IC50(MKK4) > 10)	+++ (IC50(off-target)/IC50(MKK4) > 100)	+++ (IC50(off-target)/IC50(MKK4) > 100)	
